This data set in a line: Dynamic vapor sorption (DVS). As to conditions: for hygroscopicity: DVS at RT; for water uptake from 60% RH to 80% RH / water uptake up to 60% RH: DVS; for water uptake from 60% RH to 80% RH / water uptake up to 60% RH / form change before and after DVS test: RT; for water uptake up to 60% RH: up to 60% RH (ambient condition); for form change before and after DVS test: determined by XRPD. The data set is classed as physicochemical. As to the method: Dynamic Vapor Sorption (DVS) was measured with a Surface Measurement System (SMS) DVS Intrinsic.

These results are taken from patent publication US12161634B2, “Pyruvate kinase R (PKR) activating compositions” (Novo Nordisk Health Care AG, priority 2020, dated 2024).

For the compound `O=C([C@H](CO)c1ccccc1)N1CC2=C(C1)CN(S(=O)(=O)c1cnc3c(c1)OCCO3)C2` [Type B, (S)-1-(5-[2H,3H-[1,4]dioxino[2,3-b]pyridine-7-sulfonyl]-1H,2H,3H,4H,5H,6H-pyrrolo[3,4-c]pyrrol-2-yl)-3-hydroxy-2-phenylpropan-1-one], the hygroscopicity result is on record as “hygroscopic”; the “water uptake from 60% RH to 80% RH” value was found to be 0.4%; the “water uptake up to 60% RH” value was 2.9%; the “form change before and after DVS test” value is “No form change”.

`O=C([C@H](CO)c1ccccc1)N1CC2=C(C1)CN(S(=O)(=O)c1cnc3c(c1)OCCO3)C2` [Type C, (S)-1-(5-[2H,3H-[1,4]dioxino[2,3-b]pyridine-7-sulfonyl]-1H,2H,3H,4H,5H,6H-pyrrolo[3,4-c]pyrrol-2-yl)-3-hydroxy-2-phenylpropan-1-one]: the hygroscopicity entry is listed as “hygroscopic”; the “water uptake from 60% RH to 80% RH” value was 0.5%; the “water uptake up to 60% RH” value amounted to 1.8%; the “form change before and after DVS test” value was “No form change”.
